{"source": "patent US9593138B2", "about": "“Nitrile-containing enzyme inhibitors and ruthenium complexes thereof” (Wayne State University, priority 2012, dated 2017)", "key": {"[1]": {"assay": "Quantum yields of photoinduced CH3CN ligand exchange in H2O (Example 12)", "format": "physicochemical", "settings": "for quantum yield, first CH3CN ligand exchange (Φ500) / quantum yield, first CH3CN ligand exchange (Φ550): H2O; for quantum yield, first CH3CN ligand exchange (Φ500): 500 nm irradiation", "method": "The quantum yields (Φ) for photoinduced ligand exchange of the first CH3CN in H2O were measured for complexes 12.1 and 12.3 with 500 nm and 550 nm irradiation wavelengths using the appropriate bandpass filters. The moles of complex reacted was quantitated using electronic absorption spectroscopy by monitoring the decrease in MLCT absorption maximum of each complex as a function of irradiation time (moles reacted/s) at early irradiation times, and Reinecke's salt was used as an actinometer to determine the intensity (Einstein/s) of the Xe arc lamp at the corresponding wavelengths. The Φ for the photoinduced ligand exchange of the second CH3CN ligand was measured for 12.1 using 400 nm and 550 nm irradiation wavelengths using the appropriate bandpass filters monitoring the decrease in the MLCT absorption peak of the mono-aqua intermediate, 12.4."}, "[2]": {"settings": "reported, cited from earlier work"}, "[3]": {"system": "BMM cells", "assay": "MTT cell viability, BMM cells", "format": "cell-based, murine", "settings": "1 nM-100 μM, light or dark, after 24 h", "method": "In order to gain more insight into the biological behavior of the caged inhibitor, effects of VI and its byproducts on cell viability in BMM cells were determined under light and dark conditions. BMM cells were treated with either VI or cis-[Ru(bpy)2(MeCN)2](PF6)2 as a control (1 nM-100 μM), incubated for 30 min, left in the dark or irradiated with a tungsten halogen lamp for 15 min and then washed, using the same protocol as the confocal microscopy studies shown in FIG. 15. After 24 h viabilities were determined using the MTT assay (FIG. 17).\n(§1) FIG. 6. Cytotoxicity of cis-[Ru(bpy)2(2)2]Cl2 (3) and the control compound cis-[Ru(bpy)2(MeCN)2](PF6)2 on BMM cells (A-B) and prostate cancer PC3 cells (C-D). […] Cell viability was determined using the MTT assay after 24 h for BMM cells and 72 h for PC3 cells, and is reported relative to control with only buffer added. Error bars represent the standard deviations of triplicate wells, and data are representative of three independent experiments."}, "[4]": {"system": "prostate cancer PC3 cells", "assay": "MTT cell viability, PC3 cells", "format": "cell-based", "settings": "1 nM-100 μM, light or dark, up to 72 h", "method": "as §1\nThese effects are highly dependent on the nature of ligands bound to ruthenium, and with some compounds treatment for up to 72 h is necessary to observe growth inhibitory effects. Later time points were not examined with BMM cells due to complications in maintaining these cells in culture over long periods of time, with or without VI."}, "[5]": {"target": "T1, papain (Carica papaya, UniProt P00784)", "T1 sequence (P00784 134-345)": "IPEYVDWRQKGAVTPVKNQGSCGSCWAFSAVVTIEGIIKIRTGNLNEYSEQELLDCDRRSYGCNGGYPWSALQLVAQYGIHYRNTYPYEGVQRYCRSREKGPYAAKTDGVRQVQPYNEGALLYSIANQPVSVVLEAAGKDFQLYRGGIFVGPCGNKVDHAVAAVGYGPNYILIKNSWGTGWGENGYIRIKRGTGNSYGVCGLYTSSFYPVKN", "assay": "Papain inhibition, chromogenic substrate BAPNA, light vs dark", "format": "biochemical", "method": "FIG. 5. […] Data points represent an average of three reactions and error bars are standard deviations.\nPapain Inhibition Studies. The inhibition studies with papain were carried out following a modified procedure by Gütschow and coworkers (Löser et al., J. Med. Chem. 2005, 48, 7688-7707). […] A 0.25 mM papain stock solution was prepared in 0.1 mM HCl and kept frozen. For each experiment, the stock solution was diluted 250 times and activated for 45 min at 25° C. with a 0.1 M phosphate pH 6.5, 15 mM DTT and 2.5 mM EDTA buffer solution. A 10.0 mM solution of BAPNA in DMSO was prepared daily and plated (final concentration 1.0 mM). The inhibitor was plated as a 1% DMSO solution in the assay buffer.\nThe photolysis was conducted for 10 minutes (with gentle shaking of the plate every 2-3 minutes) using a 250 W tungsten halogen lamp (Osram Xenophot HLX) powered by a 24 V power supply. The irradiation wavelength was selected by placing a bandpass filter (395 nm cutoff) between the lamp and the sample, along with a 10 cm water cell to absorb infrared light. After photolysis, the reaction was initiated by addition of 65 μL of enzyme (final volume 100 μL, final enzyme concentration 0.65 μM). The absorbance changes due to the hydrolysis product p-nitroaniline (pNA) were measured at 405 nm every 2 min for 14 min (8 measures) at 25° C."}, "[6]": {"target": "T2, human cathepsin K (Homo sapiens, UniProt P43235)", "T2 sequence (P43235 115-329)": "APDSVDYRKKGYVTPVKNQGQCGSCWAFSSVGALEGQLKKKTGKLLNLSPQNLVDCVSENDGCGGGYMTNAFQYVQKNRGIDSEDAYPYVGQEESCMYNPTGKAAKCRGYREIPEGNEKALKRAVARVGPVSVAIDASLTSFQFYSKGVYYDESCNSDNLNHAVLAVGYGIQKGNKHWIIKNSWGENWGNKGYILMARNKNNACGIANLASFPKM", "assay": "Cathepsin K inhibition, Z-Gly-Pro-Arg-AMC, light vs dark", "format": "biochemical", "settings": "without irradiation (dark); pH 5.5", "method": "Cathepsins B, K and L were then examined for photoinduced inhibition with V. IC50 values for 1 and V (with and without irradiation) were determined in aqueous buffer at pH 5.5 for cathepsins L and K, and pH 6.0 for cathepsin B using fluorogenic substrates selective for each enzyme (Table 1). […] Control experiments show some level of inhibition by [Ru^II(bpy)2(MeCN)2](PF6)2, which may explain the lower ratios for dark vs. light conditions observed with cathepsins vs. papain.\nThe IC50 values represent the average from three independent experiments. […] Activities were determined with the fluorogenic substrates Z-Arg-Arg-AMC (cathepsin B), Z-Gly-Pro-Arg-AMC (cathepsin K) and Z-Phe-Arg-AMC (cathepsin L) (where AMC is aminomethylcoumarin). […]\nCathepsin Inhibition Studies. Cathepsin enzyme activity was determined from kinetic measurements performed by fluorometric detection of the hydrolysis product aminomethylcoumarin (AMC) at 37° C. every 2 min for 14 min (8 measures). […]\nThe photolysis was conducted for 10 minutes (with gentle shaking of the plate every 2-3 min) using a 250 W tungsten halogen lamp (Osram Xenophot HLX) powered by a 24 V power supply. […] Cathepsin enzyme activity was determined from kinetic measurements performed by fluorometric detection of the hydrolysis product AMC at 37° C. every 2 min for 14 min (8 measures) and MAX RFU slope values used for plotting (FIG. 7)."}, "[7]": {"target": "T3, human cathepsin B (Homo sapiens, UniProt P07858)", "T3 construct": "Purified cathepsin B (human liver) was obtained from Enzo Life Sciences; purchased Enzo Life Sciences; host or cells: human liver (tissue-purified)", "assay": "Cathepsin B inhibition, Z-Arg-Arg-AMC, light vs dark", "format": "biochemical", "settings": "without irradiation (dark); pH 6.0", "source_text": "(§2) The irradiation wavelength was selected by placing a bandpass filter (395 nm cutoff) between the lamp and the sample, along with a 10 cm water cell to absorb infrared light."}, "[8]": {"target": "T4, human cathepsin L (Homo sapiens, UniProt P07711)", "T4 construct": "purchased Sigma", "T4 sequence (P07711 114-333)": "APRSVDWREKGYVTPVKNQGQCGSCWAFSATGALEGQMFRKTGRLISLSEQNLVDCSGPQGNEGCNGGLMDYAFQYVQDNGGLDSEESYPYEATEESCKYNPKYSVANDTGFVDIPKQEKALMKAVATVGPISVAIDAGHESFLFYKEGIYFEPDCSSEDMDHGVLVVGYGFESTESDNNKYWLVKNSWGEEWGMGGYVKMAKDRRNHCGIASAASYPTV", "assay": "Cathepsin L inhibition, Z-Phe-Arg-AMC, light vs dark", "format": "biochemical", "settings": "without irradiation (dark); pH 5.5", "source_text": "as §2"}, "[9]": {"target": "T5, human cathepsin B in DU145 lysates (Homo sapiens, UniProt P07858)", "T5 construct": "endogenous in cells; host or cells: DU145 prostate carcinoma cells (ATCC), lysate", "assay": "Cathepsin B activity in DU145 lysates, Z-Arg-Arg-AMC", "format": "biochemical", "settings": "DU145 lysate, without irradiation (dark)", "source_text": "as §2"}, "[10]": {"target": "T6, human cathepsin B in hBMSC lysates (Homo sapiens, UniProt P07858)", "T6 construct": "lysates from primary human bone marrow stromal cells (hBMSC), an important source of cathepsin activity; endogenous in cells; host or cells: primary human bone marrow stromal cells (hBMSC), lysate", "assay": "Cathepsin B activity in hBMSC lysates, Z-Arg-Arg-AMC", "format": "biochemical", "settings": "hBMSC lysate, without irradiation (dark)", "source_text": "as §2"}, "[11]": {"target": "T2, human cathepsin K", "assay": "Cathepsin K inhibition by the Ru(TPA)-caged inhibitor, 365 nm light (Example 10)", "format": "biochemical", "settings": "500 μM, highest concentration surveyed, light and dark", "method": "Complex 10.2 acts as a potent, photoactivated inhibitor of human cathepsin K. IC50 values were determined for 10.2 and 10.3 under dark conditions, and upon irradiation with 365 nm light (FIG. 20)."}, "[12]": {"assay": "Dark controls: ligand exchange in the absence of light", "format": "physicochemical", "settings": "H2O, room temperature (˜22° C.)", "method": "FIG. 23. Dark Control with respect to FIG. 22 showing that the nitrile ligands are not released under similar conditions in the absence of light for a period of 24 hours.\nPhotochemistry. The photoreactivity of 12.1-12.3 was evaluated by monitoring the changes to the electronic absorption and ^1H NMR spectra as a function of irradiation time. […] Complexes 12.1-12.3 are inert to ligand substitution in the dark at room temperature under similar experimental conditions. For the symmetrical complexes 12.2 and 12.3, one resonance is observed in CD3CN corresponding to the methyl protons of both bound acetonitrile ligands at 2.22 ppm and 2.28 ppm, respectively. During the photolysis of 12.2 in CD3CN with λirr≧455 nm, the resonance at 2.22 ppm decreases with increasing irradiation time, while a peak at 1.96 ppm corresponding to free CH3CN in CD3CN increases in intensity at the same rate. The photolysis of 12.3 in CD3CN with λirr≧610 nm yields similar results with the decrease of the peak at 2.28 ppm with the concomitant increase of the free CH3CN resonance at 1.96 ppm. The intensity of the peak corresponding to free CH3CN at 1.96 ppm integrates to two ligands at the end of the photolysis for both 12.2 and 12.3 in CD3CN, indicative that that both CH3CN ligands in 12.2 and 12.3 are exchanged. […] Moreover, no shifts are observed in the aromatic region as the reaction progresses. […]"}}, "note": "pIC50: −log10 of the molar value."}
{"compound": "CC#N.CC#N.F[P-](F)(F)(F)(F)F.F[P-](F)(F)(F)(F)F.[Ru+2].c1cnc2c(c1)ccc1cccnc12.c1cnc2c(c1)ccc1cccnc12", "note": "[12.2, [Ru(phen)2(CH3CN)2](PF6)2]", "values": [{"measurement": "quantum yield, first CH3CN ligand exchange (Φ400)", "setting": "[1]; 400 nm irradiation", "value": "0.22(1)"}]}
{"compound": "CC#N.CC#N.F[P-](F)(F)(F)(F)F.F[P-](F)(F)(F)(F)F.[Ru+2].c1ccc2nc(-c3ccc4ccccc4n3)ccc2c1.c1ccc2nc(-c3ccc4ccccc4n3)ccc2c1", "note": "[12.3, [Ru(biq)2(CH3CN)2](PF6)2]", "values": [{"measurement": "quantum yield, first CH3CN ligand exchange (Φ500)", "setting": "[1]", "value": "0.24(1)"}, {"measurement": "quantum yield, first CH3CN ligand exchange (Φ550)", "setting": "[1]; 550 nm irradiation", "value": "0.150(8)"}]}
{"compound": "N#Cc1c[nH]c(=O)[nH]c1=O.N#Cc1c[nH]c(=O)[nH]c1=O.[Cl-].[Cl-].[Ru+2].c1ccc(-c2ccccn2)nc1.c1ccc(-c2ccccn2)nc1", "note": "[cis-[Ru(bpy)2(5-cyanouracil)2]Cl2]", "values": [{"measurement": "quantum yield for formation of the mono-aqua species (ΦR→I)", "setting": "[2]", "value": "0.16(4)"}]}
{"compound": "CC#N.CC#N.F[P-](F)(F)(F)(F)F.F[P-](F)(F)(F)(F)F.[Ru+2].c1ccc(-c2ccccn2)nc1.c1ccc(-c2ccccn2)nc1", "note": "[cis-[Ru(bpy)2(MeCN)2](PF6)2, reference compound]", "values": [{"measurement": "cell viability (MTT)", "setting": "[3]", "value": "no effects on viability"}, {"measurement": "growth inhibitory effects (MTT)", "setting": "[4]", "value": "not observed"}, {"measurement": "pIC50", "setting": "[5]; control complex, same profile under light and dark conditions", "value": "< 3.30"}]}
{"compound": "CC#N.CC#N.[Cl-].[Cl-].[Ru+2].c1ccc(-c2ccccn2)nc1.c1ccc(-c2ccccn2)nc1", "note": "[cis-[Ru(bpy)2(MeCN)2]Cl2]", "values": [{"measurement": "overall photoaquation quantum yield (ΦR→P)", "setting": "[2]; λirr=400 nm", "value": 0.21}]}
{"compound": "CC(=O)N[C@@H](Cc1ccccc1)C(=O)NCC#N", "note": "[compound 1, (S)-2-Acetamido-N-(cyanomethyl)-3-phenylpropanamide]", "values": [{"measurement": "pIC50", "setting": "[6]", "value": 4.92}, {"measurement": "pIC50", "setting": "[7]", "value": 3.88}, {"measurement": "pIC50", "setting": "[8]", "value": 4.14}, {"measurement": "pIC50", "setting": "[9]", "value": 3.74}, {"measurement": "pIC50", "setting": "[5]; without irradiation, phosphate buffer pH 6.5, enzyme 650 nM", "value": 6.20}, {"measurement": "pIC50", "setting": "[10]", "value": 3.74}]}
{"compound": "[Ru(TPA)(CH3CN)2](PF6)2 [10.1]", "values": [{"measurement": "inhibition of cathepsin K", "setting": "[11]", "value": "no inhibition"}]}
{"compound": "[Ru(biq)(phen)(CH3CN)2](PF6)2 [12.1]", "values": [{"measurement": "quantum yield, first CH3CN ligand exchange (Φ500)", "setting": "[1]", "value": "0.26(1)"}, {"measurement": "quantum yield, first CH3CN ligand exchange (Φ550)", "setting": "[1]; 550 nm irradiation", "value": "0.140(5)"}]}
{"compound": "cis-[Ru(bpy)(biq)(CH3CN)(H2O)]^2+ [12.4]", "values": [{"measurement": "stability in the dark", "setting": "[12]", "value": "stable in the dark for up to 6 hours"}, {"measurement": "quantum yield, exchange of the remaining CH3CN ligand (Φ400)", "setting": "[1]; 400 nm irradiation, to the bis-aqua complex 12.5", "value": "0.0045(1)"}, {"measurement": "quantum yield, exchange of the remaining CH3CN ligand (Φ550)", "setting": "[1]; 550 nm irradiation, to the bis-aqua complex 12.5", "value": "0.0014(5)"}]}
